Laboratory results taken from ChEMBL document CHEMBL1201862, “PubChem BioAssay data set” (2004).
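Test compounds were applied to cells in 96-well plates for 48 hours at 5 doses. GI50: concentration for 50% inhibition of growth.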 The source made the active and inactive calls. Cut-off read from the data, not from the text of the source: active = GI50 up to about 1.1 µM and inactive = higher.

Tests used:
Assay in all cases: DTP human tumour cell line panel, 48 h
OVCAR-5 = test system: OVCAR-5
MOLT-4 = test system: MOLT-4
RXF 393 = test system: RXF 393
NCI-H23 = test system: NCI-H23
HOP-92 = test system: HOP-92
OVCAR-8 = test system: OVCAR-8
UACC-62 = test system: UACC-62
SN12C = test system: SN12C
SK-MEL-5 = test system: SK-MEL-5
SW-620 = test system: SW-620
OVCAR-3 = test system: OVCAR-3
NCI/ADR-RES = test system: NCI/ADR-RES
TK-10 = test system: TK-10
HOP-62 = test system: HOP-62
MDA-MB-435 = test system: MDA-MB-435
DU-145 = test system: DU-145
NCI-H522 = test system: NCI-H522
MDA-MB-231 = test system: MDA-MB-231
SK-OV-3 = test system: SK-OV-3

| SMILES | GI50 (OVCAR-5) | GI50 (MOLT-4) | GI50 (RXF 393) | GI50 (NCI-H23) | GI50 (HOP-92) | GI50 (OVCAR-8) | GI50 (UACC-62) | GI50 (SN12C) | GI50 (SK-MEL-5) | GI50 (SW-620) | GI50 (OVCAR-3) | GI50 (NCI/ADR-RES) | GI50 (TK-10) | GI50 (HOP-62) | GI50 (MDA-MB-435) | GI50 (DU-145) | GI50 (NCI-H522) | GI50 (MDA-MB-231) | GI50 (SK-OV-3) |
| --- | --- | --- | --- | --- | --- | --- | --- | --- | --- | --- | --- | --- | --- | --- | --- | --- | --- | --- | --- |
| c1ccc(C2Nc3ccccc3C3OCCCC23)cc1 (stereo not drawn) | 38.7 µM (inactive) | 24.9 µM (inactive) | 18.7 µM (inactive) | 32.8 µM (inactive) | 26.4 µM (inactive) | 17.5 µM (inactive) | 11.6 µM (inactive) | 38.5 µM (inactive) | 5.06 µM (inactive) | 26 µM (inactive) | – | – | – | – | – | – | – | – | – |
| Cc1occc(=O)c1O [MALTOL] | > 100 µM (inactive) | > 100 µM (inactive) | – | > 100 µM (inactive) | > 100 µM (inactive) | > 100 µM (inactive) | – | 5 µM (inactive) | > 100 µM (inactive) | > 100 µM (inactive) | > 100 µM (inactive) | > 100 µM (inactive) | > 100 µM (inactive) | > 100 µM (inactive) | > 100 µM (inactive) | > 100 µM (inactive) | > 100 µM (inactive) | 3.84 µM (inactive) | – |
| CCOP(=O)(C=C=C(C)C)OCC | > 100 µM (inactive) | – | > 100 µM (inactive) | > 100 µM (inactive) | > 100 µM (inactive) | > 100 µM (inactive) | > 100 µM (inactive) | > 100 µM (inactive) | > 100 µM (inactive) | > 100 µM (inactive) | > 100 µM (inactive) | > 100 µM (inactive) | > 100 µM (inactive) | > 100 µM (inactive) | > 100 µM (inactive) | > 100 µM (inactive) | 36.4 µM (inactive) | – | > 100 µM (inactive) |
| COC(=O)[C@]1(C)CCC[C@]2(C)C3CC4OOC3(C=C4C(C)C)CCC21 (stereo partly drawn) | 19.6 µM (inactive) | 16.9 µM (inactive) | – | 18.8 µM (inactive) | – | 19.8 µM (inactive) | 17.1 µM (inactive) | 16.8 µM (inactive) | 16.1 µM (inactive) | 16 µM (inactive) | 31.8 µM (inactive) | – | 23.4 µM (inactive) | 24.5 µM (inactive) | – | – | 1.78 µM (inactive) | – | 20.1 µM (inactive) |
| O=C(NN1C(=O)/C(=C/c2ccc(Cl)cc2)N=C1c1ccccc1)c1c(Cl)c(Cl)c(Cl)c(Cl)c1-c1nc2ccccc2[nH]1 | 29.1 µM (inactive) | 6.93 µM (inactive) | – | 13.4 µM (inactive) | 11.6 µM (inactive) | 27.9 µM (inactive) | 10.7 µM (inactive) | 24.1 µM (inactive) | 19.7 µM (inactive) | 20.6 µM (inactive) | 33 µM (inactive) | 15.3 µM (inactive) | – | < 0.01 µM (active) | 2.8 µM (inactive) | 17.7 µM (inactive) | 18.2 µM (inactive) | – | < 0.01 µM (active) |
| CC1(C)O[C@H]2Cn3c(c(C#N)c4ccccc43)[C@H]2O1 | > 100 µM (inactive) | – | – | > 100 µM (inactive) | > 100 µM (inactive) | – | > 100 µM (inactive) | > 100 µM (inactive) | > 100 µM (inactive) | – | > 100 µM (inactive) | > 100 µM (inactive) | > 100 µM (inactive) | > 100 µM (inactive) | > 100 µM (inactive) | > 100 µM (inactive) | > 100 µM (inactive) | > 100 µM (inactive) | > 100 µM (inactive) |
| Cc1ccc2nc(-c3ccc(-c4nc5ccc(C)cc5o4)c(O)c3)oc2c1 | > 100 µM (inactive) | > 100 µM (inactive) | – | > 100 µM (inactive) | > 100 µM (inactive) | > 100 µM (inactive) | > 100 µM (inactive) | > 100 µM (inactive) | > 100 µM (inactive) | > 100 µM (inactive) | – | > 100 µM (inactive) | > 100 µM (inactive) | > 100 µM (inactive) | > 100 µM (inactive) | > 100 µM (inactive) | – | > 100 µM (inactive) | > 100 µM (inactive) |
| Cc1cc(C)cc(NC(N)=S)c1 | > 100 µM (inactive) | > 100 µM (inactive) | 20.2 µM (inactive) | > 100 µM (inactive) | > 100 µM (inactive) | > 100 µM (inactive) | > 100 µM (inactive) | > 100 µM (inactive) | > 100 µM (inactive) | 4.06 µM (inactive) | > 100 µM (inactive) | – | > 100 µM (inactive) | > 100 µM (inactive) | – | – | > 100 µM (inactive) | – | – |
| CC1(CCC2C=CCC2)CCCNC1=S (stereo not drawn) | > 10 µM (inactive) | > 10 µM (inactive) | > 10 µM (inactive) | > 10 µM (inactive) | > 10 µM (inactive) | > 10 µM (inactive) | > 10 µM (inactive) | > 10 µM (inactive) | > 10 µM (inactive) | > 10 µM (inactive) | > 10 µM (inactive) | – | > 10 µM (inactive) | > 10 µM (inactive) | > 10 µM (inactive) | > 10 µM (inactive) | – | > 10 µM (inactive) | > 10 µM (inactive) |
| CCOC(=O)C1N(S(=O)(=O)c2ccc(C)cc2)CCC12C(c1ccc(OC)cc1)NC1CCCCC12 (stereo not drawn) | > 100 µM (inactive) | – | 44.4 µM (inactive) | > 100 µM (inactive) | 22.9 µM (inactive) | > 100 µM (inactive) | > 100 µM (inactive) | > 100 µM (inactive) | > 100 µM (inactive) | > 100 µM (inactive) | > 100 µM (inactive) | – | > 100 µM (inactive) | 98.6 µM (inactive) | – | – | > 100 µM (inactive) | – | > 100 µM (inactive) |
| O=c1oc2ccc3ccccc3c2cc1-c1nnc(-c2ccc([N+](=O)[O-])cc2)[nH]1 | > 100 µM (inactive) | 71.4 µM (inactive) | – | 17.7 µM (inactive) | – | 21.4 µM (inactive) | > 100 µM (inactive) | – | > 100 µM (inactive) | > 100 µM (inactive) | > 100 µM (inactive) | > 100 µM (inactive) | – | 17.2 µM (inactive) | > 100 µM (inactive) | 87.3 µM (inactive) | 92 µM (inactive) | – | 23.6 µM (inactive) |
| COC(=O)CCCC1(CCCC(=O)OC)CCCCCCCCC(CCCC(=O)OC)(CCCC(=O)OC)C(=O)C1=O | > 100 µM (inactive) | – | 1.6 µM (inactive) | 18.6 µM (inactive) | 20.6 µM (inactive) | 50.7 µM (inactive) | 13.6 µM (inactive) | > 100 µM (inactive) | 53.1 µM (inactive) | > 100 µM (inactive) | 22.9 µM (inactive) | 40.2 µM (inactive) | > 100 µM (inactive) | 38.5 µM (inactive) | 86.1 µM (inactive) | > 100 µM (inactive) | 2.24 µM (inactive) | – | > 100 µM (inactive) |
| Sc1nnc(C(c2ccccc2)c2ccccc2)[nH]1 | > 100 µM (inactive) | > 100 µM (inactive) | > 100 µM (inactive) | > 100 µM (inactive) | – | > 100 µM (inactive) | > 100 µM (inactive) | > 100 µM (inactive) | > 100 µM (inactive) | > 100 µM (inactive) | > 100 µM (inactive) | – | > 100 µM (inactive) | > 100 µM (inactive) | – | – | 53.2 µM (inactive) | – | > 100 µM (inactive) |
